Experimental data taken from US20120010206A1, “IMIDAZOLOPYRIDINE COMPOUNDS USEFUL FOR THE TREATMENT OF DEGENERATIVE AND INFLAMMATORY DISEASES” (priority 2006, published 2012).

What was measured:
[1] = test system: MMP1 expression from activated SFs (RASF); experiment: MMP assay: MMP1 expression (ELISA) by TNF-α-triggered RASFs; type: cell-based; conditions: RASF triggered with TNFα, MMP1 ELISA after 48 hrs, semi-quantitative score
In short: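 Rheumatoid arthritis synovial fibroblasts (passage 10–12) were preincubated 90 min with compound in M199 with 1% FBS, then stimulated with TNF-α (10 ng/mL final) or complex trigger (12.5% final) for 48 h. MMP1 in the supernatant was quantified by sandwich luminescence ELISA. Controls were stimulated cells with 0.2% DMSO vehicle and unstimulated cells.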

[2] = biological target: T1, TAK1-TAB1 fusion protein (Homo sapiens, UniProt O43318); experiment: In vitro TAK1 kinase assay (33P-ATP, casein substrate); type: biochemical; conditions: semi-quantitative score, at least two independent experiments
T1 construct: purchased Upstate 14-600
T1 sequence (O43318 with tags, fused parts or gaps limits assumed): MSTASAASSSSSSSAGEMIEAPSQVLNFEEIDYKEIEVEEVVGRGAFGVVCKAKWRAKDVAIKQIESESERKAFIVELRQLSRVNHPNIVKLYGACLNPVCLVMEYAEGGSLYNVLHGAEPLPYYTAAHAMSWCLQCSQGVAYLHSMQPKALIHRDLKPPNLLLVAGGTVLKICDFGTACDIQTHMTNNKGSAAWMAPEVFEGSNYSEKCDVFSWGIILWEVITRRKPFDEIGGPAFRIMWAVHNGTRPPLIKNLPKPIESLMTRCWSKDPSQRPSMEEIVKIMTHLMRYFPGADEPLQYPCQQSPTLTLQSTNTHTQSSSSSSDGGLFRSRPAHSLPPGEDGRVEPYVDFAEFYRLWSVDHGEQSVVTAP
In short: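 Radiometric assay with active TAK1-TAB1 fusion protein (0.5 mU), 0.1 mg/mL casein, ATP at 5 µM plus [33P]-γ-ATP, in 10 mM MOPS pH 7.0, 1 mM EDTA. Reactions ran 90 min at 30 °C, were stopped with phosphoric acid and filter-counted; percent inhibition from ≥2 experiments gave semi-quantitative potency scores.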

| SMILES | EC50 [1] [µM] | IC50 [2] [µM] |
| --- | --- | --- |
| CCN(C)CCN(CC)C(=O)c1ccc(Nc2ccc(-c3ccc4c(c3)CNC4=O)n3ccnc23)cc1 [Compound 47, N-ethyl-N-(2-(ethyl(methyl)amino)ethyl)-4-(5-(1-oxoisoindolin-5-yl)imidazo[1,2-a]pyridin-8-ylamino)benzamide] | > 3 | < 0.1 |
| CC(C)N1CCN(C(=O)c2ccc(Nc3ccc(-c4ccc5c(c4)CNC5=O)n4ccnc34)cc2)CC1 [Compound 48, 5-(8-(4-(4-isopropylpiperazine-1-carbonyl)phenylamino)imidazo [1,2-a]pyridin-5-yl)isoindolin-1-one] | > 3 | < 0.1 |
| CCN1CCC[C@H]1CNC(=O)c1ccc(Nc2ccc(-c3ccc4c(c3)CNC4=O)n3ccnc23)cc1 [Compound 49, (S)-N-((1-ethylpyrrolidin-2-yl)methyl)-4-(5-(1-oxoisoindolin-5-yl)imidazo[1,2-a]pyridin-8-ylamino)benzamide] | > 3 | < 0.1 |
| CN(C)CCCNC(=O)c1ccc(Nc2ccc(-c3ccc4c(c3)CNC4=O)n3ccnc23)cc1 [Compound 50, -(3-(dimethylamino)propyl)-4-(5-(1-oxoisoindolin-5-yl)imidazo[1,2-a]pyridin-8-ylamino)benzamide] | > 3 | 0.101 to 1 |
| O=C(NCCCN1CCCC1)c1ccc(Nc2ccc(-c3ccc4c(c3)CNC4=O)n3ccnc23)cc1 [Compound 51, 4-(5-(1-oxoisoindolin-5-yl)imidazo[1,2-a]pyridin-8-ylamino)-N-(3-(pyrrolidin-1-yl)propyl)benzamide] | > 3 | 0.101 to 1 |
| CCC(C)N1CCN(C(=O)c2ccc(Nc3ccc(-c4ccc5c(c4)CNC5=O)n4ccnc34)cc2)CC1 (stereo not drawn) [Compound 52, 5-(8-(4-(4-sec-butylpiperazine-1-carbonyl)phenylamino)imidazo [1,2-a]pyridin-5-yl)isoindolin-1-one] | > 3 | 0.101 to 1 |
| CCN1CCN(C(=O)c2ccc(Nc3ccc(-c4ccc5c(c4)CNC5=O)n4ccnc34)cc2)CC1 [Compound 53, 5-(8-(4-(4-ethylpiperazine-1-carbonyl)phenylamino)imidazo [1,2-a]pyridin-5-yl)isoindolin-1-one] | > 3 | < 0.1 |
| CN1CCN(c2ccc(Nc3ccc(-c4ccc(C(N)=O)cc4)n4ccnc34)cc2F)CC1 [Compound 63] | > 3 | 0.101 to 1 |
| CS(=O)(=O)c1ccc(Nc2ccc(-c3cc[nH]c(=O)c3)n3ccnc23)cc1 [Compound 64] | 1 to 3 | 0.101 to 1 |
| O=c1cc(-c2ccc(Nc3ccc(N4CCOCC4)c(F)c3)c3nccn23)cc[nH]1 [Compound 65] | 0.101 to 1 | 0.101 to 1 |
| NC(=O)c1ccc(-c2ccc(Nc3ccc(N4CCOCC4)c(F)c3)c3nccn23)cc1 [Compound 66] | 0.101 to 1 | 1 to 3 |
| NC(=O)c1ccc(-c2ccc(Nc3ccc(N4CCOCC4)c(F)c3)c3nccn23)cc1F [Compound 67] | 0.101 to 1 | > 3 |
| O=c1cc(-c2ccc(Nc3ccc(N4CCOCC4)cc3)c3nccn23)cc[nH]1 [Compound 68] | 0.101 to 1 | 0.101 to 1 |
| Fc1cc(Nc2ccc(-c3cn[nH]c3)n3ccnc23)ccc1N1CCOCC1 [Compound 69] | 1 to 3 | 0.101 to 1 |
| CC(=O)Nc1ccc(-c2ccc(Nc3ccc(N4CCN(C(C)C)CC4)cc3)c3nccn23)cc1 [Compound 70] | > 3 | > 3 |
| CS(=O)(=O)c1ccc(Nc2ccc(-c3cn[nH]c3)n3ccnc23)cc1 [Compound 71] | 1 to 3 | 0.101 to 1 |
| CS(=O)(=O)c1ccc(Nc2ccc(-c3ccc(C(N)=O)c(F)c3)n3ccnc23)cc1 [Compound 72] | 1 to 3 | 1 to 3 |
| NC(=O)c1ccc(-c2ccc(Nc3ccc(N4CCOCC4)c(F)c3)c3nccn23)cc1Cl [Compound 73] | 0.101 to 1 | > 3 |
| CC(C)N1CCN(c2ccc(Nc3ccc(-c4cc[nH]c(=O)c4)n4ccnc34)cc2)CC1 [Compound 74] | 0.101 to 1 | < 0.1 |
| CC(C)N1CCN(c2ccc(Nc3ccc(-c4cccc5[nH]ccc45)n4ccnc34)cc2)CC1 [Compound 75] | > 3 | 0.101 to 1 |
| CCCN1CCN(c2ccc(Nc3ccc(-c4ccc(C(N)=O)cc4)n4ccnc34)cc2)CC1 [Compound 76] | 0.101 to 1 | 0.101 to 1 |
| NC(=O)c1ccc(-c2ccc(Nc3ccc(N4CCN(C5CCCCC5)CC4)cc3)c3nccn23)cc1 [Compound 77] | 1 to 3 | 0.101 to 1 |
| NC(=O)c1ccc(-c2ccc(Nc3ccc(N4CCN(C5CCC5)CC4)cc3)c3nccn23)cc1 [Compound 78] | > 3 | 0.101 to 1 |

| SMILES | EC50 [1] [µM] | IC50 [2] [µM] |
| --- | --- | --- |
| CC(C)CCN1CCN(c2ccc(Nc3ccc(-c4ccc(C(N)=O)cc4)n4ccnc34)cc2)CC1 [Compound 79] | > 3 | 0.101 to 1 |
| CCC(CC)N1CCN(c2ccc(Nc3ccc(-c4ccc(C(N)=O)cc4)n4ccnc34)cc2)CC1 [Compound 80] | > 3 | 0.101 to 1 |
| CCN1CCN(c2ccc(Nc3ccc(-c4ccc(C(N)=O)cc4)n4ccnc34)cc2)CC1 [Compound 81] | 1 to 3 | 0.101 to 1 |
| c1cn2c(-c3cn[nH]c3)ccc(Nc3ccc(N4CCN(C5CCC5)CC4)cc3)c2n1 [Compound 82] | > 3 | 0.101 to 1 |
| NC(=O)c1ccc(-c2ccc(Nc3ccc(N4CCN(C5CC5)CC4)cc3)c3nccn23)cc1 [Compound 83] | > 3 | 1 to 3 |
| CCCN1CCN(c2ccc(Nc3ccc(-c4cc[nH]c(=O)c4)n4ccnc34)cc2)CC1 [Compound 84] | 0.101 to 1 | 0.101 to 1 |
| O=c1cc(-c2ccc(Nc3ccc(N4CCN(C5CCC5)CC4)cc3)c3nccn23)cc[nH]1 [Compound 85] | 0.101 to 1 | 0.101 to 1 |
| CC(C)CCN1CCN(c2ccc(Nc3ccc(-c4cc[nH]c(=O)c4)n4ccnc34)cc2)CC1 [Compound 86] | 1 to 3 | 0.101 to 1 |
| CCC(CC)N1CCN(c2ccc(Nc3ccc(-c4cc[nH]c(=O)c4)n4ccnc34)cc2)CC1 [Compound 87] | 0.101 to 1 | 0.101 to 1 |
| O=c1cc(-c2ccc(Nc3ccc(N4CCN(C5CC5)CC4)cc3)c3nccn23)cc[nH]1 [Compound 88] | 1 to 3 | 1 to 3 |
| CCC(CC)N1CCN(c2ccc(Nc3ccc(-c4cn[nH]c4)n4ccnc34)cc2)CC1 [Compound 89] | > 3 | 0.101 to 1 |
| O=c1cc(-c2ccc(Nc3ccc(N4CCN(C5CCCCC5)CC4)cc3)c3nccn23)cc[nH]1 [Compound 90] | 0.101 to 1 | 0.101 to 1 |
| CCN1CCN(c2ccc(Nc3ccc(-c4cc[nH]c(=O)c4)n4ccnc34)cc2)CC1 [Compound 91] | 0.101 to 1 | 0.101 to 1 |
| Cc1n[nH]c(C)c1-c1ccc(Nc2ccc(N3CCOCC3)cc2)c2nccn12 [Compound 92] | > 3 | > 3 |
| CC(C)N1CCN(c2ccc(Nc3ccc(-c4cccc(O)c4)n4ccnc34)cc2)CC1 [Compound 94] | > 3 | > 3 |
| COc1cc(-c2ccc(Nc3ccc(N4CCN(C(C)C)CC4)cc3)c3nccn23)ccc1O [Compound 95] | > 3 | 0.101 to 1 |
| CC(C)N1CCC(c2ccc(Nc3ccc(-c4cc[nH]c(=O)c4)n4ccnc34)cc2)CC1 [Compound 96] | 1 to 3 | 0.101 to 1 |
| CC(C)N1CCN(c2ccc(Nc3ccc(-c4cc[nH]c(=O)c4)n4ccnc34)cc2C(F)(F)F)CC1 [Compound 106, 4-{8-[4-(4-Isopropyl-piperazin-1-yl)-3-trifluoromethyl-phenylamino]-imidazo[1,2-a]pyridin-5-yl}-1H-pyridin-2-one] | 0.101 to 1 | > 3 |
| O=c1cc(-c2ccc(Nc3ccc(C4CCN(CC(F)F)CC4)cc3)c3nccn23)cc[nH]1 [Compound 107, 4-(8-{4-[1-(2,2-Difluoro-ethyl)-piperidin-4-yl]-phenylamino)-imidazo[1,2-a]pyridin-5-yl)-1H-pyridin-2-one] | 1 to 3 | 1 to 3 |
| O=c1cc(-c2ccc(Nc3ccc(C4CCN(CCF)CC4)cc3)c3nccn23)cc[nH]1 [Compound 108, 4-(8-{4-[1-(2-Fluoro-ethyl)-piperidin-4-yl]-phenylamino}-imidazo[1,2-a]pyridin-5-yl)-1H-pyridin-2-one] | 1 to 3 | 0.101 to 1 |
| FC(F)CN1CCN(c2ccc(Nc3ccc(-c4cn[nH]c4)n4ccnc34)cc2)CC1 [Compound 109, {4-[4-(2,2-Difluoro-ethyl)-piperazin-1-yl]-phenyl}-[5-(1H-pyrazol-4-yl)-imidazo[1,2-a]pyridin-8-yl]-amine] | 0.101 to 1 | 1 to 3 |
| c1cn2c(-c3cn[nH]c3)ccc(Nc3ccc(N4CCSCC4)cc3)c2n1 [Compound 111, [5-(1H-Pyrazol-4-yl)-imidazo[1,2-a]pyridin-8-yl]-(4-thiomorpholin-4-yl-phenyl)-amine] | 0.101 to 1 | 1 to 3 |
